In EP4389739A1, “MOLECULE HAVING PESTICIDAL UTILITY AND PROCESSES RELATED THERETO” (Corteva Agriscience LLC, priority 2022, dated 2024):

Key:
Format in all cases: in vivo
[1] = test system: root knot nematode (RKN), Meloidogyne incognita; assay: Root Knot Nematode (RKN) test on cucumber seedlings in greenhouse, Galling Index converted to % control, EC by probit analysis; conditions: based on % control from Galling Index, cucumber, 4,000 J2s, 14 days in Greenhouse, about 27 °C
Procedure: The following Root Knot Nematode (RKN) test was conducted to compare the activities of S1, R1, and B1.
We conducted an experiment to evaluate comparative bioactivity of S1, R1, and B1 against the root knot nematode (RKN), Meloidogyne incognita. Each of S1, R1, and B1 were tested at […]: 125, 62.5, 31.25, 15.6, 7.8, 3.9, and 2 ppm. Cucumber seeds (Cucumis sativus) were planted in a sandy loam soil in 3-inch pots. After 6 days of germination, the seedlings were treated with the test compounds dissolved in 5% acetone in water. The treated plants were inoculated with 4,000 second stage juveniles (J2s) of M. incognita. Each experimental unit was replicated three times. The inoculated plants were kept in a Greenhouse for 14 days (about 27 °C) before evaluating the amount of root damage (galls) called Galling Index (GI) based on a scale of 0 - 10; where 0 = no galls (100% control), and 10 = maximum galls (no control). The GI was converted to % control using the formula (10 - GI) x 10; where GI = Gall Index. Effective concentration (EC) values based on the % control of the nematode by S1, R1 and B1 were calculated by probit analysis.

[2] = test system: soybean cyst nematode (SCN): Heterodera glycines second stage juveniles (J2); assay: Soybean Cyst Nematode (SCN) in-vitro mortality test; conditions: mortality after 48 hours of incubation, about 25 °C, 0.5% DMSO in water; probit analysis
Procedure: The following Soybean Cyst Nematode (SCN) test was conducted to compare the activities of S1, R1, and B1.
We carried out an in-vitro experiment to compare activity of S1, R1, and B1 with each other against the soybean cyst nematode (SCN): Heterodera glycines second stage juveniles (J2). Each of S1, R1, and B1 were tested at six rates: 62.5, 15.6, 4, 1, 0.25, and 0 ppm (untreated control, UTC) with three replications of each treatment. Equal volume of nematode suspension was added to an equal volume of compound dissolved in 0.5% DMSO (dimethyl sulfoxide) in water. The nematode plus compound was incubated at room temperature (about 25 °C) on a shaker at 95 revolutions per minutes (RPM). Aliquots of 0.5 milliliters (mL) of the nematode suspension were evaluated under a microscope for mortality after 48 hours of incubation. SCN J2s were counted, and the number of dead and active nematodes was used to calculate % SCN mortality which was used to generate lethal concentration (LC) values by probit analysis.

[3] = test system: root lesion nematode (RLN), Pratylechus penetrans; assay: Root Lesion Nematode (RLN) in-vitro mortality test; conditions: mortality after 48 hours, about 25 °C, 0.5% DMSO in water
Procedure: The following Root Lesion Nematode (RLN) test was conducted to compare the activities of S1, R1, and B1.
We carried out an in-vitro experiment to compare activity of S1, R1, and B1 with each other against the root lesion nematode (RLN), Pratylechus penetrans. Each of S1, R1, and B1 were tested at six rates: 62.5, 15.6, 4, 1, 0.25, and 0 ppm (UTC) with three replications of each treatment. Equal volume of nematode suspension was added to an equal volume of each of S1, R1, and B1 dissolved in 0.5% DMSO (dimethyl sulfoxide) in water in 25 mL vials. The treated nematode suspension was incubated at room temperature (about 25 °C) on a shaker (95 RPM). Aliquots of 1 mL of the nematode suspension was evaluated under a microscope for mortality after 48 hours. RLN were counted, and the number of dead and active nematodes was used to calculate % mortality from which lethal concentration (LC) values were generated.

M. incognita = assay: Residuality test in soil: treated soil aged four weeks, then cucumber seedlings transplanted and inoculated; conditions: 1250 g ai/ha applied to bare sandy loam soil, four weeks before transplanting and inoculation; 14 days; four replicates
Procedure: The molecules in Example Two were compared in a residuality test.
A residuality test was conducted to compare the residual control or persistence of S 1, R1, C1, C2, C3, C4, and C5 in soil. Each compound was applied to a bare sandy loam soil (without plant or nematode) in a 3-inch pot at 1250 g ai/ha. The treated soils were kept in a Greenhouse (temperature 27 °C) under regular irrigation for four weeks. At the end of the four weeks, six-day old cucumber (Cucumis sativus) seedlings were transplanted into the treated soil and inoculated with 4,000 second stage juveniles of M. incognita. Each treatment was replicated four times. The inoculated plants were kept in a Greenhouse for 14 days (temperature 27 °C) before evaluating the amount of root damage (galls) called Galling Index (GI) based on a scale of 0 - 10; where 0 = no galls (100% nematode control), and 10 = maximum galls (no nematode control). The GI were converted to % control using the formula ((10 - GI) x 10); where GI = Gall Index. The data were analyzed by Analysis of Variance using JMP (John's Macintosh Project) statistical software and the means were separated using Tukey's HSD (α = 0.05).

[4] = test system: root knot nematode, Meloidogyne incognita; assay: Root knot nematode comparative bioactivity test at a single rate, drench application on cucumber seedlings; conditions: 600 g ai/ha, 14 days after inoculation, (10 - GI) x 10, three replicates
Procedure: We carried out an experiment to evaluate comparative bioactivity of S 1, C1, C2, C3, C4, and C5 against the root knot nematode, Meloidogyne incognita. Each compound was tested at 600 grams of active ingredient per hectare (g ai/ha) and was replicated three times. Cucumber seeds (Cucumis sativus) were planted in a sandy loam soil in 3-inch pots. After six (6) days of planting, the seedlings were treated with the test compounds dissolved in 5% acetone in water by drench application. The plants were inoculated with 4,000 second stage juveniles (J2s) of M. incognita. The inoculated plants were kept in a Greenhouse for 14 days (temperature 27 °C) before evaluating the amount of root damage (galls) called Galling Index (GI) based on a scale of 0 - 10; where 0 = no galls (100% nematode control), and 10 = maximum galls (no nematode control). The GI was converted to % nematode control using the formula ((10 - GI) x 10); where GI = Gall Index. The data were analyzed by Analysis of Variance using JMP (John's Macintosh Project) statistical software and the means were separated using Tukey's HSD (α = 0.05).

With `CCC(CC)C(C)NC(=O)c1ccoc1Cl` (racemic) [Molecule B1, 2-chloro-N-(3-ethylpentan-2-yl)furan-3-carboxamide] the “EC50 (ppm)” value [1] was 16.84 ppm, the “LC50 (ppm)” value [2] was 23.28 ppm and the “LC50 (ppm)” value [3] was 24.72 ppm.

For `C[C@H](NC(=O)c1ccoc1Cl)C1CCCCC1` [Molecule C4], the “Mean Percent Control” value (M. incognita) was 2.5% and the “Mean Percent Control” value [4] was 25%.

`CC(C)[C@H](C)NC(=O)c1ccoc1Cl` [Molecule C3] was tested, and the “Mean Percent Control” value (M. incognita) was 22.5% and the “Mean Percent Control” value [4] was 67%.

For `CCC(CC)[C@H](C)NC(=O)c1ccoc1Cl` [Molecule S1, (S)-2-chloro-N-(3-ethylpentan-2-yl)furan-3-carboxamide], the “Mean Percent Control” value (M. incognita) was 77.5%, the “EC50 (ppm)” value [1] was 4.95 ppm and the “LC50 (ppm)” value [2] was 1.799 ppm. The “LC50 (ppm)” value [3] was 6.89 ppm and the “Mean Percent Control” value [4] was 84%.

`CCC(CC)[C@@H](C)NC(=O)c1ccoc1Cl` [Molecule R1, (R)-2-chloro-N-(3-ethylpentan-2-yl)furan-3-carboxamide] was tested, and the “Mean Percent Control” value (M. incognita) was 7.5%, the “EC50 (ppm)” value [1] was over 125 ppm and the “LC50 (ppm)” value [2] was over 62.5 ppm. The “LC50 (ppm)” value [3] was over 62.5 ppm.

With `C[C@H](NC(=O)c1ccoc1Cl)C1CCCC1` [Molecule C5] the “Mean Percent Control” value (M. incognita) was 22.5% and the “Mean Percent Control” value [4] was 50%.

In the case of `CC(C)C[C@H](C)NC(=O)c1ccoc1Cl` [Molecule C2], the “Mean Percent Control” value (M. incognita) is reported as 25.0% and the “Mean Percent Control” value [4] is reported as 54%.
